Source: paper PMC12491518, “Fabrication of cytotoxic mirror image nanopores” (Nature Communications, 2025)
Where a SMILES comes first, the peptide text is derived from it. [ ]: non-standard residue; d: D form.

How the values were obtained:
MDA-MB-231 cells = assay: Cell membrane integrity by CellMask Deep Red staining; assay type: cell-based, human; settings: 25 µM, 24 h
Experimental: MDA-MB-231 cells were seeded in a 24-well plate (Thermo Fisher Scientific, 142475) containing sterilized coverslips (Blue star, Microscopic cover glass circular 12 mm 10 gm) at a cell density of 3 × 10^4 cells per well. 24 h post-seeding, cells were treated with DpPorA DE peptide, 5-FAM-DpPorA DE peptide, or a corresponding concentration of DDM. After 24 h of treatment, cells were stained with CellMask Deep Red (Thermo Fisher Scientific, C10046; 1:4000 dilution in PBS) for 5 min at 37 °C. After membrane staining, the cells were washed with PBS and fixed in 2% PFA (Himedia, TCL119) for 5 min. After PBS wash, the coverslips were carefully removed from the wells and mounted with ProLong™ Gold Antifade Mountant (Invitrogen, P10144). The cells were immediately visualized within 60 min using the Carl Zeiss Axio Observer fluorescence microscope. Fluorescence was quantified by drawing the ROI around individual cells to measure the green channel intensity (5-FAM-DpPorA DE). Integrated Density was measured using ImageJ software for 50 cells per group. […]
g) Preparation of DDM and peptides for testing on cancer cells
Lyophilized DpPorA, LpPorA, DpPorA DE, LpPorA DE and 5-FAM-DpPorA DE were reconstituted in 0.1% DDM [1 µL of 100 µg mL-1 DDM (Sigma-Aldrich Merck, D5172) in PBS (Gibco - 14040)], resulting in a peptide concentration of 1.7 mM. Subsequent concentrations were diluted with DMEM, 10% FBS, and 1% Penicillin /Streptomycin-containing media. (Supplementary Table 2) h) Cell membrane integrity analysis and statistics
Immunofluorescence (IF) images were analyzed to assess the impact of different treatments on cell membrane integrity. Cells were categorized into Intact and Disrupted groups based on membrane integrity observed by CellMask cell membrane staining. We evaluated a t least 100 cells for each group - Control, DDM-treated cells and peptide-treated cells- with independent analysis done by a student blinded to the groups' identity . […]
indicating a loss of cell membrane integrity. This categorization provided a clear and systematic approach to quantify the effects of various treatments on cell membrane integrity.
For three independent experiments, data in bar graphs represent mean (± standard deviation) fold change relative to Control groups. Differences between the two datasets were assessed using Welch’s test. Statistical significance is indicated as: *p<0.05, **p<0.01, ***p<0.001,

[1] = GUV-based molecular transport assay; assay type: biochemical; settings: 100 mM KCl 10 mM HEPES pH 7.4, mean ± S.D., N = 4 batches
Experimental: The giant unilamellar vesicles (GUVs) were constructed using gel-assisted swelling methodology and labeled with 0.05 mol% ATTO 550 DOPE[27],[44],[61]. Thin lipid films were spread on polyvinyl alcohol (PVA) coated glass slides using 30 µL of a 1 mg/mL solution of DOPC (Cis and Ent lipids prepared separately). […] The successful formation of vesicles was verified in real time by phase-contrast microscopy. To study the transport across DpPorA and DpPorA DE pores, the peptides were added to GUVs (at a concentration of 10–15 µM in 0.1% DDM) along with the fluorescent hydrophilic molecules (namely Alexa Fluor 350 Hydrazide: M.W-349 Da, Alexa Fluor 555 Hydrazide: M.W-1150 Da, ATTO 488 Dextran: M.W-3000 Da)[62]. The uptake of fluorescent molecules was monitored over 40 min, with time-lapse imaging at every minute for the first 10 min and then at every 5 min for the following 30 min, tracking either single vesicles or multiple vesicles within the same field of view. Later on, individual vesicles were further scanned and imaged to obtain datasets for statistical analysis. Control experiments were conducted under identical conditions using vesicles prepared with the same detergent concentration but without peptide incorporation. At each time point, the vesicle images were blank-subtracted, and the intensity inside the vesicle ( Iin ) was normalized against the intensity outside ( Iout )[27]. Complete permeabilization of the vesicles was marked by Iin/Iout ≥ 0.98 for peptide-reconstituted vesicles, while Iin/Iout ≥ 0.95 was considered as the cut-off for permeabilization in the control vesicles.

[2] = Single-channel electrical recordings in planar lipid bilayers; assay type: biochemical; settings: for mean unitary conductance (G): 10 mM HEPES, pH 7.4, DpPorA at +50 mV, n = 83 insertions, DpPorA DE n = 61 insertions; for experimental conductance Gexp: Supplementary Table 1
Experimental: High-resolution electrical recordings for the single-channel characterization were conducted in planar lipid bilayers made up of 1,2-diphytanoyl-sn-glycero-3-phosphocholine (DPhPC, Avanti Polar Lipids)[23],[27],[51]. The lipid bilayer is formed across a polytetrafluoroethylene (Teflon) aperture of ~100 µm in diameter. Teflon is placed between the two sides of the Delrin bilayer chamber, partitioning it into cis and trans compartments (600 µL each). For constructing a solvent-free lipid bilayer, the aperture is made lipophilic by pre-painting both sides with hexadecane in n-pentane (1 μL, 5 mg mL^−1)[51]. After ~10 min, the chambers were filled with buffered electrolytes (1 M KCl, 10 mM HEPES, pH 7.4), and DPhPC in n-pentane (1 μL, 5 mg mL^−1) was added. After ~15 min incubation, the lipid bilayer is formed by raising and lowering the electrolyte solution, bringing the two lipid monolayers together at the aperture. The cis compartment was connected to the ground electrode, while the trans compartment was connected to the working live electrode. Subsequently, DpPorA or DpPorA DE peptides solubilized in 0.1% DDM (1 µL, 100 µg mL^−1) were consistently introduced into the cis compartment of the bilayer. The peptide pore insertion was facilitated by mixing the bilayer chamber and applying a high voltage of +200 mV. The single-channel electrical properties of the peptide pores and analyte-induced pore blockages were examined in 1 M KCl, 10 mM HEPES, pH 7.4. Ion selectivity was assessed under asymmetric salt conditions with a KCl concentration gradient across the planar lipid bilayer (0.15 M cis/1 M trans) (SI text)[27]. The ion current was acquired and amplified using an Axopatch 200B amplifier, digitized with Digidata 1550B digitizer, and recorded using the pClamp 11 acquisition software (Molecular Devices, CA). The current signals were filtered with a 2 kHz low-pass filter frequency and 10 kHz sampling frequency, or with 10 kHz low-pass filter frequency and 50 kHz sampling frequency, in line with the requirement.

[3] = DOPC (Cis-DOPC) GUVs, peptide 10 to 15 µM in 0.1% DDM

SMILES | Cell number, Disrupted phenotype (MDA-MB-231 cells) | Cell number, Intact phenotype (MDA-MB-231 cells) | cells with Disrupted membrane phenotype (MDA-MB-231 cells; at least 100 cells) | cells with Intact membrane phenotype (MDA-MB-231 cells; at least 100 cells) | percentage of permeabilization, ATTO 488 Dextran [1, 3] | percentage of permeabilization, Alexa Fluor 350 [1, 3] | percentage of permeabilization, Alexa Fluor 555 [1, 3] | mean unitary conductance (G) ([2]; 1 M KCl) | experimental conductance Gexp [2] | percentage of permeabilization, ATTO 488 Dextran ([1]; Ent-DOPC GUVs, 0.1% DDM) | percentage of permeabilization, Alexa Fluor 350 ([1]; Ent-DOPC GUVs, 0.1% DDM) | percentage of permeabilization, Alexa Fluor 555 ([1]; Ent-DOPC GUVs, 0.1% DDM) | unitary conductance (G) of proteinase K treated peptides ([2]; 1 M KCl, after proteinase K treatment, n = 25) | pores with slightly higher current at negative than positive voltages ([2]; 1 M KCl, current rectification of n = 30 single channels)
CC[C@@H](C)[C@@H](NC(=O)[C@H](N)CCSC)C(=O)N[C@H](CC(=O)O)C(=O)N[C@H](CCC(N)=O)C(=O)N[C@@H](C(=O)N[C@@H](C(=O)N[C@H](CCC(=O)O)C(=O)N[C@@H](C(=O)N[C@H](Cc1ccccc1)C(=O)NCC(=O)N[C@H](CCC(N)=O)C(=O)N[C@H](CC(C)C)C(=O)NCC(=O)N[C@@H](C(=O)N[C@H](Cc1ccccc1)C(=O)N[C@H](CC(C)C)C(=O)NCC(=O)NCC(=O)N[C@H](Cc1ccccc1)C(=O)NCC(=O)N[C@H](CC(N)=O)C(=O)N[C@@H](C(=O)N[C@H](Cc1ccccc1)C(=O)N[C@H](CCCCN)C(=O)NCC(=O)N[C@H](CC(C)C)C(=O)N[C@H](CCCCN)C(=O)N[C@H](C)C(=O)N[C@@H](C(=O)N[C@@H](C(=O)N[C@H](C)C(=O)N[C@@H](C(=O)N[C@@H](C(=O)N[C@@H](C(=O)N[C@H](CCCCN)C(=O)N[C@H](Cc1c[nH]c2ccccc12)C(=O)N[C@@H](C(=O)N[C@H](C)C(=O)N[C@H](C)C(=O)N[C@H](CCCCN)C(=O)O)[C@H](C)O)C(C)C)[C@H](C)CC)[C@H](C)O)[C@H](C)CC)C(C)C)[C@H](C)CC)[C@H](C)O)[C@H](C)CC)[C@H](C)O)[C@H](C)CC [DpPorA DE] (H-[dM][dI][dD][dQ][dI][dT][dE][dI][dF]G[dQ][dL]G[dT][dF][dL]GG[dF]G[dN][dI][dF][dK]G[dL][dK][dA][dV][dI][dA][dT][dI][dV][dK][dW][dT][dA][dA][dK]-OH; N-terminus and C-terminus assumed) | 158 | 1 | 99.37% | 0.63% | 53.8 ± 8% | 89.2 ± 3.7% | 71.3 ± 3.5% | 3.80 ± 0.2 nS | 3.8 ± 0.2 nS |  |  |  |  | 
CC[C@@H](C)[C@@H](NC(=O)[C@H](N)CCSC)C(=O)N[C@H](CC(=O)O)C(=O)N[C@H](CCC(N)=O)C(=O)N[C@@H](C(=O)N[C@@H](C(=O)N[C@H](CCC(=O)O)C(=O)N[C@@H](C(=O)N[C@H](Cc1ccccc1)C(=O)NCC(=O)N[C@H](CCC(N)=O)C(=O)N[C@H](CC(C)C)C(=O)NCC(=O)N[C@@H](C(=O)N[C@H](Cc1ccccc1)C(=O)N[C@H](CC(C)C)C(=O)NCC(=O)NCC(=O)N[C@H](Cc1ccccc1)C(=O)NCC(=O)N[C@H](CC(N)=O)C(=O)N[C@@H](C(=O)N[C@H](Cc1ccccc1)C(=O)N[C@H](CCCCN)C(=O)NCC(=O)N[C@H](CC(C)C)C(=O)N[C@H](CCCCN)C(=O)N[C@H](CC(=O)O)C(=O)N[C@@H](C(=O)N[C@@H](C(=O)N[C@H](CCC(=O)O)C(=O)N[C@@H](C(=O)N[C@@H](C(=O)N[C@@H](C(=O)N[C@H](CCCCN)C(=O)N[C@H](Cc1c[nH]c2ccccc12)C(=O)N[C@@H](C(=O)N[C@H](C)C(=O)N[C@H](C)C(=O)N[C@H](CCCCN)C(=O)O)[C@H](C)O)C(C)C)[C@H](C)CC)[C@H](C)O)[C@H](C)CC)C(C)C)[C@H](C)CC)[C@H](C)O)[C@H](C)CC)[C@H](C)O)[C@H](C)CC [DpPorA] (H-[dM][dI][dD][dQ][dI][dT][dE][dI][dF]G[dQ][dL]G[dT][dF][dL]GG[dF]G[dN][dI][dF][dK]G[dL][dK][dD][dV][dI][dE][dT][dI][dV][dK][dW][dT][dA][dA][dK]-OH; N-terminus and C-terminus assumed) |  |  |  |  | 73.0 ± 14.1% | 88.9±7.8% | 67.9± 10.4% | 2.80 ± 0.2 nS | 2.8 ± 0.2 nS | 72.70±14.61% | 95.13±3.54% | 70.38±4.93% | 2.8 ± 0.2 nS | 90%
